Consider one compound from patent US12509429B2, “Hydroxybenzamide derivatives and methods of use in treating diabetes” (THE BOARD OF REGENTS OF THE UNIVERSITY OF OKLAHOMA, priority 2022, dated 2025).

Structures are written as SMILES. “Also recorded” adds a separate entry of the source.

What all share (assay type): cell-based, rat
Assay [1] relates to CHOP mRNA. The experiment in a line: qRT-PCR of Tm-induced CHOP mRNA expression in INS-1 cells. The conditions noted are these: compound 5 μM, Tm 0.5 μg/ml, 4 h and 8 h, normalized to cyclophilin A, listed as WO3i. The procedure: CHOP mRNA levels by qRT-PCR in INS-1 cells treated for 4 h (A) and 8 h (B) with WO3i at 5 μM in the presence or absence of Tm (0.5 μg/ml). Data are presented as the fold change after normalized to cyclophilin A mRNA.
(§1) Total RNA was extracted from INS-1 cells using TRIzol reagent (Invitrogen, Carlsbad, CA) according to the manufacturer's protocol. 2 μg of total RNA was reverse transcribed using Superscript IV kit (Invitrogen). Real-time PCR was performed with a CFX96 Real-Time PCR detection system (Bio-Rad, CA) using SYBR Select Master Mix (Applied Biosystems, CA).
(§2) Relative mRNA levels were normalized against Cyclophilin A and were determined by ΔΔCt calculated from the difference in ΔCt values between the target gene and Cyclophilin A with and without treatment, based on comparative CT (cycle threshold) method.

Assay [2] relates to INS-1 β cells. Nature of the assay: Live-cell phase-contrast images of INS-1 cells under ER stress. The conditions noted are these: Tm 0.5 μg/mL, compound 5 μM, 24 h, phase-contrast/bright field. On the procedure:
INS-1 cells were treated with or without Tm (0.5 μg/mL) in the presence of WO3i (5 μM) or DMSO (0.1%) for 24 h, and live-cell phase-contrast images were acquired (magnification 10×).

In assay [3] the test system is INS-1 β cells. Nature of the assay: Western blotting of cleaved caspase-3 and PARP (Tm-induced apoptosis). The settings on record: INS-1 cells, Tm 0.3 μg/ml, 24 h, co-treatment at 1 and 5 μM, Western blot. The procedure:
INS-1 cells were treated with or without Tm (0.3 μg/ml) in the presence of WO3i at indicated concentrations or DMSO for indicated times. Cleaved caspase-3 and PARP were determined by Western blotting. GADPH was used as a loading control. The data shown are representative of 3 independent experiments.
INS-1 cells cultured in 60-mm dishes were washed with PBS and lysed with lysis buffer (Cell Signaling Technology, Danvers, MA) containing protease and phosphatase inhibitors (Thermo). Aliquots of 20 μg total protein were separated on 10% SDS-PAGE gels (Life Technologies) and transferred to PVDF membranes (Life Technologies). The membranes were probed with primary antibodies followed by the appropriate HRP-conjugated secondary antibodies. Blots were then developed using Pierce ECL Western Blotting Substrate (cat no 32106). The primary antibodies and dilutions used were: cleaved caspase 3 (1:1000, 9661, Cell Signaling Technology, MA, USA), and PARP (1:1000, 9542L, Cell Signaling Technology), and GAPDH (1:1000, SC-32233, Santa Cruz Biotechnology). Secondary antibodies used: goat anti rabbit IgG and goat anti-mouse IgG, 1:5000; Santa Cruz Biotechnology, Santa Cruz, CA).
To determine whether the increase in cell viability following treatment with WO3i was caused by a suppression of apoptotic cell death, levels of cleaved caspase-3 and cleaved PARP were assessed by Western blotting. […] However, upon severe ER stress, caspase 3 undergoes proteolytic cleavage to form the active enzyme, which in turns cleaves PARP, to trigger apoptotic cell death.

For assay [4], the system named is PERK activation (ATF4 mRNA). Nature of the assay: qRT-PCR of ATF4 mRNA (Tm-induced PERK activation) in INS-1 cells. The settings on record: compound 5 μM, Tm 0.5 μg/ml, 4 h and 8 h, normalized to cyclophilin A, listed as WO3i. On the procedure:
ATF4 mRNA levels by qRT-PCR in INS-1 cells treated for 4 h (A) and 8 h (B) with WO3i at 5 μM in the presence or absence of Tm (0.5 μg/ml). Data are presented as the fold change after normalized to cyclophilin A mRNA.
as §1, §2

Assay [5] concerns ATF6 activation (BiP mRNA). Nature of the assay: qRT-PCR of BiP mRNA (Tm-induced ATF6 activation) in INS-1 cells. The settings on record: compound 5 μM, Tm 0.5 μg/ml, 4 h and 8 h, normalized to cyclophilin A, listed as WO3i. The procedure: BiP mRNA levels by qRT-PCR in INS-1 cells treated for 4 h (A) and 8 h (B) with WO3i at 5 μM in the presence or absence of Tm (0.5 μg/ml). Data are presented as the fold change after normalized to cyclophilin A mRNA.
as §1, §2

Assay [6] relates to IRE1α activation (Xbp1-s mRNA). Nature of the assay: qRT-PCR of spliced Xbp1 mRNA (Tm-induced IRE1α activation) in INS-1 cells. The conditions noted are these: compound 5 μM, Tm 0.5 μg/ml, 4 h and 8 h, normalized to cyclophilin A, listed as WO3i. The procedure: Spliced Xbp1 (Xbp1-s) mRNA levels by qRT-PCR in INS-1 cells treated for 4 h (A) and 8 h (B) with WO3i at 5 μM in the presence or absence of Tm (0.5 μg/ml). Data are presented as the fold change after normalized to cyclophilin A mRNA.
as §1, §2

Assay [7] has as its system INS-1 cells. The experiment in a line: Cell viability assay: protection of INS-1 cells from tunicamycin (Tm)-induced loss of viability (CellTiter-Glo, intracellular ATP). The conditions noted are these: Rattus norvegicus, INS1. The procedure: INS-1 cells were resuspended in RPMI 1640 medium containing 10% FBS and seeded at 5×10^3 cells/well in a 384-well plate. After overnight 24 h incubation, compounds were added to the wells at the indicated concentration using a pin-transfer robot (PerkinElmer). Tm in RPMI 1640 medium containing 10% FBS was then added at a final concentration of 0.15 μg/mL. After 72 h, the medium was removed and 20 μL of CellTiter-Glo reagent (Promega) was added. Luminescence was measured 10 min later using a Synergy Neo2 plate reader (Biotek).
Hydroxy benzamide (HBA) derivatives were synthesized based on various scaffolds and evaluated for their viability of rat INS-1 β cells in the presence of tunicamycin (Tm), a potent ER stress inducer that inhibits N-linked glycosylation of proteins. The maximum activities and the concentrations that reach half-maximal activity (EC50) of the compounds were evaluated by the degree of increase in viability of INS-1 cells co-treated with the compounds in the presence of Tm compared with Tm treatment alone.

`O=C(NCc1ccc(C(F)(F)F)cc1)c1cccc(O)c1` [Compound 3i, 3-Hydroxy-N-(4-(trifluoromethyl)benzyl)benzamide]: in assay [1], the “Tm-induced CHOP mRNA expression” value is on record as “markedly diminished; also recorded: suppresses”. Also, the results for the “Preservation of INS-1 β cell viability under ER stress (images)” value in assay [2] (listed as WO3M) and in assay [2] (listed as WO3i) were “significantly more cells were preserved” and “preserves the INS-1 β cell viability”, respectively. Besides, the “Tm-induced apoptosis: cleavage of caspase-3 and PARP” value in assay [3] is recorded as “suppresses”; in assay [3] (listed as WO3) it was “almost completely abolished”; in assay [3] (listed as WO3M) it was “suppresses”; in assay [3] (listed as WO3i), “suppresses”. Besides, in assay [4], the “Tm-induced ATF4 mRNA level (PERK activation)” value was “abolished; also recorded: suppresses”. Further, the “Tm-induced BiP mRNA level (ATF6 activation)” value in assay [5] is recorded as “completely suppressed; also recorded: suppresses”. Further, the “Tm-induced spliced Xbp1 (Xbp1-s) mRNA level (IRE1α activation)” value in assay [6] was “eliminated; also recorded: suppresses”. The Emax in assay [7] (% rescue from Tm (0.15 μg/mL)-induced reduction of INS-1 cell viability (intracellular ATP), Tm alone 0%, DMSO without Tm 100%, 72 h, read-out: Maximum % of Protection) was 100%. Besides, the EC50 in assay [7] (INS-1 cell viability, Tm 0.15 μg/mL, ten 2-fold serial titration points, GraphPad Prism) amounted to 190 nM.
